The subject of the assay is human platelet rich plasma. The experiment in a line: Inhibition of human platelet aggregation, 96-well assay. The format is cell-based. On the procedure:
Inhibition of Human Platelet Aggregation
Alternatively to a binding assay which measures a compound's ability to bind to the P2Y12 receptor, the effect on cellular function was also determined. This ability of the compound was evaluated in two platelet aggregation assays: in 96-well plates and with the “Born”-method using single cuvettes.
Whole blood was collected from healthy volunteers using 20 ml syringes containing 2 ml of ACD-A Aqua-Citrat-Dextrose-A, Fresenius). The anticoagulated whole blood was transferred into 15 ml polypropylene conical tubes (10 ml per tube). The tubes were centrifuged for 15 minutes at 150×g at RT without using the centrifuge brake. This procedure leads to a pellet of cellular components and a supernatant of platelet rich plasma (PRP). The PRP layer was collected from each tube and pooled for each donor. To avoid carry over of cellular components following centrifugation, approximately 5 ml of PRP was left in the tube. The platelet concentration was determined using a Coulter Counter.
The 15 ml tubes containing the pellet of cellular components were centrifuged again for 10 minutes at 1940×g. This pelleted out most particulate blood constituents remaining, leaving a layer of Platelet Poor Plasma (PPP). The PPP was collected for each donor. The PRP layer, previously set aside, was diluted with PPP to a final concentration of approximately 3×E8 platelets/ml with the PPP.
The human platelet aggregation assay is performed in 96-well plates using a microtiter plate reader (SpectraMax Plus 384 with SoftMax Pro software from Molecular Devices). In the plate 15 μl of test compound at 10× final concentration in NaCl is mixed with 120 μl fresh PRP and incubated for 5 minutes. Following that incubation period, 15 μl of 40 μM ADP is added to the reaction mix. This addition of ADP is sufficient to induce aggregation in the absence of an inhibitor. The plates are then transferred to the microplate reader and aggregation is measured over 20 minutes. The instrument settings include:
Absorbance at 650 nm, run time 20 minutes with readings in 1-minute intervals and 50 seconds shaking between readings all performed at 37° C.

Where [1] appears, read: ADP-induced aggregation, human platelet rich plasma, 96-well plates, AUC of absorbance over 20 minutes.

A word on the IC50: it is the concentration that inhibits the measured activity by half. The low end stands for higher potency, the high end for lower potency.

“4-[2-({5-[2-((S)-2-Cyclobutylcarbamoyl-pyrrolidin-1-yl)-2-oxo-ethoxy]-1-phenyl-1H-pyrazole-3-carbonyl}-amino)-acetyl]-piperazine-1-carboxylic acid 2-methoxy-ethyl ester [Example 254]” had an IC50 under setting [1] of 750 nM.

As to `CCOC(=O)N1CCN(C(=O)[C@H](CCC(=O)O)NC(=O)c2cc(OCC(=O)N3CCC[C@H]3C(=O)NC)n(-c3ccccc3)n2)CC1` [Example 7, 4-{(S)-4-Carboxy-2-[(5-{2-[(S)-2-(2-methylcarbamoyl)-pyrrolidin-1-yl]-2-oxo-ethoxy}-1-phenyl-1H-pyrazole-3-carbonyl)-amino]-butyryl}-piperazine-1-carboxylic acid ethyl ester], half-maximal inhibition under setting [1] (IC50) was put at 1460 nM.

In the case of `CCNC(=O)[C@@H]1CCCN1C(=O)COc1cc(C(=O)N[C@@H](CCC(=O)O)C(=O)N2CCN(C(=O)OCC)CC2)nn1-c1ccccc1` [Example 8, 4-{(S)-4-Carboxy-2-[(5-{2-[(S)-2-ethylcarbamoyl-pyrrolidin-1-yl]-2-oxo-ethoxy}-1-phenyl-1H-pyrazole-3-carbonyl)-amino]-butyryl}-piperazine-1-carboxylic acid ethyl ester], the IC50 (Homo sapiens, Platelet, 20 min) is 470 nM.

`CCOC(=O)N1CCN(C(=O)[C@H](CCC(=O)O)NC(=O)c2cc(OCC(=O)N3CCC[C@H]3C(=O)N3CCCC3)n(-c3ccccc3)n2)CC1` [Example 17, 4-{(S)-4-Carboxy-2-[(5-{2-oxo-2-[(S)-2-(pyrrolidine-1-carbonyl)-pyrrolidin-1-yl]-ethoxy}-1-phenyl-1H-pyrazole-3-carbonyl)-amino]-butyryl}-piperazine-1-carboxylic acid ethyl ester] had an IC50 (Homo sapiens, Platelet, 20 min) of 600 nM.

For `CCOC(=O)N1CCN(C(=O)[C@H](CCC(=O)O)NC(=O)c2cc(OCC(=O)N3CCC[C@H]3C(=O)N3CCC(F)(F)CC3)n(-c3ccccc3)n2)CC1` [Example 19, 4-{(S)-4-Carboxy-2-[(5-{2-[(S)-2-(4,4-difluoro-piperidine-1-carbonyl)-pyrrolidin-1-yl]-2-oxo-ethoxy}-1-phenyl-1H-pyrazole-3-carbonyl)-amino]-butyryl}-piperazine-1-carboxylic acid ethyl ester], half-maximal inhibition (Homo sapiens, Platelet, 20 min) (IC50) required 210 nM.

As for `CCOC(=O)N1CCN(C(=O)[C@H](CCC(=O)O)NC(=O)c2cc(OCC(=O)N3CCC[C@H]3C(=O)N(C)C3CCC3)n(-c3ccccc3)n2)CC1` [Example 22, 4-{(S)-4-Carboxy-2-[(5-{2-[(S)-2-(cyclobutyl-methyl-carbamoyl)-pyrrolidin-1-yl]-2-oxo-ethoxy}-1-phenyl-1H-pyrazole-3-carbonyl)-amino]-butyryl}-piperazine-1-carboxylic acid ethyl ester], the IC50 (Homo sapiens, Platelet, 20 min) worked out at 220 nM. In turn, `CCOC(=O)N1CCN(C(=O)[C@H](CCC(=O)O)NC(=O)c2cc(OCC(=O)N3CCN(C(C)=O)CC3)n(-c3ccccc3)n2)CC1` [Example 27, 4-[(S)-2-({5-[2-(4-Acetyl-piperazin-1-yl)-2-oxo-ethoxy]-1-phenyl-1H-pyrazole-3-carbonyl}-amino)-4-carboxy-butyryl]-piperazine-1-carboxylic acid ethyl ester] displayed an IC50 (Homo sapiens, Platelet, 20 min) of 760 nM. Still for that read-out and setting: with `CCOC(=O)N1CCN(C(=O)[C@H](CCC(=O)O)NC(=O)c2cc(OCC(=O)N3CC[C@H]3C(=O)NC3CC3)n(-c3ccccc3)n2)CC1` [Example 40, 4-[(S)-4-Carboxy-2-({5-[2-((S)-2-cyclopropylcarbamoyl-azetidin-1-yl)-2-oxo-ethoxy]-1-phenyl-1H-pyrazole-3-carbonyl}-amino)-butyryl]-piperazine-1-carboxylic acid ethyl ester] the figure was 860 nM; with `CCOC(=O)N1CCN(C(=O)[C@H](CC(=O)O)NC(=O)c2cc(OCC(=O)N3CCC[C@H]3C(=O)NC3CC3)n(-c3ccccc3)n2)CC1` [Example 56, 4-[(S)-3-Carboxy-2-({5-[2-((S)-2-cyclopropylcarbamoyl-pyrrolidin-1-yl)-2-oxo-ethoxy]-1-phenyl-1H-pyrazole-3-carbonyl}-amino)-propionyl]-piperazine-1-carboxylic acid ethyl ester], 60 nM; with `CCOC(=O)N1CCN(C(=O)[C@H](CC(=O)O)NC(=O)c2cc(OCC(=O)N3CCC[C@H]3C(=O)NCCF)n(-c3ccccc3)n2)CC1` [Example 59, 4-{(S)-3-Carboxy-2-[(5-{2-[(S)-2-(2-fluoro-ethylcarbamoyl)-pyrrolidin-1-yl]-2-oxo-ethoxy}-1-phenyl-1H-pyrazole-3-carbonyl)-amino]-propionyl}-piperazine-1-carboxylic acid ethyl ester], 630 nM. Still for that read-out and setting: in the case of `CCOC(=O)N1CCN(C(=O)[C@H](CCC(=O)O)NC(=O)c2cc(O[C@H](C)C(=O)N3CCC[C@H]3C(=O)N3CCCC3)n(-c3ccccc3)n2)CC1` [Example 64, 4-{(S)-4-Carboxy-2-[(5-{(R)-1-methyl-2-oxo-2-[(S)-2-(pyrrolidine-1-carbonyl)-pyrrolidin-1-yl]-ethoxy}-1-phenyl-1H-pyrazole-3-carbonyl)-amino]-butyryl}-piperazine-1-carboxylic acid ethyl ester] it was 190 nM; in that of `CCOC(=O)N1CCN(C(=O)[C@H](CCC(=O)O)NC(=O)c2cc(O[C@@H](C)C(=O)N3CCC[C@H]3C(=O)NC3CC3)n(-c3ccccc3)n2)CC1` [Example 66, 4-[(S)-4-Carboxy-2-({5-[(S)-2-((S)-2-cyclopropylcarbamoyl-pyrrolidin-1-yl)-1-methyl-2-oxo-ethoxy]-1-phenyl-1H-pyrazole-3-carbonyl}-amino)-butyryl]-piperazine-1-carboxylic acid ethyl ester], 330 nM. Turning to `CCOC(=O)N1CCN(C(=O)[C@H](CCC(=O)O)NC(=O)c2cc(O[C@@H](C)C(=O)N3CCC[C@H]3C(=O)NCC3CC3)n(-c3ccccc3)n2)CC1` [Example 68, 4-[(S)-4-Carboxy-2-({5-[(S)-2-((S)-2-cyclopropylmethylcarbamoyl-pyrrolidin-1-yl)-1-methyl-2-oxo-ethoxy]-1-phenyl-1H-pyrazole-3-carbonyl}-amino)-butyryl]-piperazine-1-carboxylic acid ethyl ester], the IC50 (Homo sapiens, Platelet, 20 min) was determined as 70 nM.

Take `CCOC(=O)N1CCN(C(=O)[C@H](CCC(=O)O)NC(=O)c2cc(O[C@@H](C)C(=O)N3CCC[C@H]3C(=O)NCC(F)(F)F)n(-c3ccccc3)n2)CC1` [Example 70, 4-[(S)-4-Carboxy-2-({5-[(S)-2-((S)-2-(2,2,2-trifluoroethylcarbamoyl)-pyrrolidin-1-yl)-1-methyl-2-oxo-ethoxy]-1-phenyl-1H-pyrazole-3-carbonyl}-amino)-butyryl]-piperazine-1-carboxylic acid ethyl ester]: the IC50 (Homo sapiens, Platelet, 20 min) came to 260 nM. The same measure, in the same setting: in the case of `CCOC(=O)N1CCN(C(=O)[C@H](CCNC(=O)C(F)(F)F)NC(=O)c2cc(OCC(=O)N3CCC[C@H]3C(=O)NC3CCC3)n(-c3ccccc3)n2)CC1` [Example 98, 4-[(S)-2-({5-[2-((S)-2-Cyclobutylcarbamoyl-pyrrolidin-1-yl)-2-oxo-ethoxy]-1-phenyl-1H-pyrazole-3-carbonyl}-amino)-4-(2,2,2-trifluoro-acetylamino)-butyryl]-piperazine-1-carboxylic acid ethyl ester] it was 1810 nM.
